Source: patent publication US20210169690A1, “Self-Retaining Implantable Drug Delivery Device” (GoldenBiotech, LLC, priority 2019, published 2021)

Key:
Format in all cases: physicochemical
[1] = In vitro drug release from silicone polymer matrix test samples in PBS pH 7.4 at 37° C., RPHPLC; conditions: 10% Travoprost matrix plug, PARYLENE about 0.68 μm, two 18G depot channels
Experimental: To test the controlled release properties of the disclosed drug-loaded silicone polymer matrices, the effects of a coating were examined. In these experiments, test samples were made as described in Example 1 to produce thin-disc-shaped drug-loaded polymer matrix. From this material, test samples were prepared by 1) cutting out rectangular polygons of about 3 mm length, about 1 mm width and about 1 mm height were cut from polymerized drug-loaded material; or 2) cutting out cylindrical plugs of about 3 mm length and having a diameter of about 0.5 mm to about 1 mm. The weight of the test samples were in the range about 0.1 mg to about 4 mg.
Certain of these cut test samples were then coated using one of three procedures. Cut test samples were coated with a polymer like poly(p-xylylene) (PARYLENE) to a thickness of about 0.10 μm to about 0.95 μm using a vapor phase deposition procedure. Similarly, cut test samples were coated a metal like titanium to a thickness of about 0.10 μm to about 0.95 μm using a vapor phase deposition procedure. Alternatively, cut test samples were physically wrapped with a tape like polytetrafluoroethylene tape and sealed using cyanoacrylate adhesive.
The presence of opening in a coated test sample was also examined. In these experiments, coated test samples were punctured to produce opening through the coating layer. From one to four opening were made using the tip of an 18G, 23G, 27G or 31G needle. Two types of opening were produced 1) surface pores which created openings only through the coating layer but left the polymer matrix intact; and 2) depot channels which created a tunnel through the entire coated test sample from one end to the other end.
To examine the drug release properties of a test sample, each sample was placed in 2 mL Eppendorf tube containing 1.5 mL of Phosphate Buffered Saline, pH 7.4 (PBS). These tubes were slowly rocked at 37° C. in an incubator. At given time points the PBS was completely removed from the tube and refilled with fresh PBS. An aliquot of the removed PBS was then analyzed by reversed phase HPLC (RPHPLC) to determine the amount of drug released from the test sample during the incubation period. In these experiments, a 10 μL injection of the test sample aliquot was run on an Agilent 1260 Infinity in a reverse phase isocratic mode using UV detection at 210 nm. The column was a Hypersil GOLD Phenyl column, (Dim. (mm) 250×4.6) and the mobile phase was a 1:1 mixture of acetonitrile to aqueous buffer (comprising HPLC grade water mixed with 5 mM ammonium acetate and 0.02% formic acid). The flow rate was 1.2 mL/min and column temperature was 22° C. Peak detection and quantitation was determined by establishing a calibration curve using known amounts of each drug tested and the amount of drug present in the test sample aliquot interpolated from this calibration curve using ChemStation software.

[2] = Release from post-loaded section of the drug delivery device (Example 5)
Experimental: A central section of a self-retaining implantable drug delivery device disclosed herein was loaded with Travoprost by cutting a 3 mm section of the device and then placed into 0.200 mL of hexanes for 3 hours. Following this period, the self-retaining implantable drug delivery device was placed immediately into 0.050 mL of a Travoprost stock solution 25 mg/mL in ethanol and allowed to stand overnight. The following day, this section was washed sequentially by dipping into a water bath, followed by a 10% acetonitrile bath. It was dried at 80 C and set to release the following day. The section was allowed to release over a period of 38 days. The loading was determined to be approximately 13 mcg. […] This release profile is predicted by the Higuchi mechanism. This type of loading procedure we term post loading. The loaded section is coated with a poly(p-xylylene) polymer and two tiny holes are place completely through the section. The section is then molded together with the two flanking sections of the stent to form the final product. The release from this modified stent follows a near zero order release in vitro and in vivo in preclinical animal models and clinical studies.

[3] = Chemical stability of prostaglandin analogues in PBS, RPHPLC; conditions: PBS at pH 4, 7 and 10; 4° C., 33° C. and 50° C.
Experimental: The chemical stability of prostaglandin analogues was also examined. In these experiments, a prostaglandin analogue was incubated in phospho-buffered saline (PBS) at pH 4, 7 and 10 and at 4° C., 33° C. and 50° C. representing long term storage, eye temperature and accelerate temperature conditions respectively. Analyses were performed by RPHPLC as described in Example 2, noting any hydrolysis products formed. […] This stability is most likely due to the amide linkage in Bimatoprost which is much more hydrolytically stable than the ester linkage in Latanoprost and Travoprost.

[4] = Korsmeyer-Peppas analysis of drug release data
Experimental: To confirm the results obtained based on the Higuchi equation analysis, the data above was also analyzed using the Korsmeyer-Peppas plot, which evaluates the mechanism of drug release by plotting the log of percent drug released over the log time in hours. If n equals 0.45, then Fickian diffusion is indicated for a cylinder (0.42 for cylinder of low aspect ratio). […] As exemplified FIG. 11, data is plotted as the log of cumulative percent drug released on the y-axis and the log time in hours on the x-axis.

[5] = Higuchi equation analysis of drug release data
Experimental: In order to ascertain whether the mechanism of drug release was based on diffusion, data obtained from various coated silicone polymer matrices were analyzed using the Higuchi equation. This analysis determined the linearity between the cumulative amount of drug released and the square root of time (SQRT). […] As exemplified FIG. 10, data is plotted as the square root of time taken on the x-axis and the cumulative percentage of drug release on the y-axis.

[6] = Modified Higuchi plot (2A versus Q^2/T)
Experimental: Travoprost and Latanoprost are oily liquids at room temperature whereas Bimatoprost is a solid at room temperature. To determine whether the liquid versus solid phase of these drugs affects their release from the silicone polymer matrix, data was analyzed using an alternative plot based on the Higuchi equation where twice the drug loading value (2A) is plotted on the […] and the average slope of the plot of cumulative drug released squared versus time in hours (Q^2/T) is plotted on the […].

Daily Release Rate ([1]; day 1): 3.12 µg/day | Daily Release Rate ([1]; day 5): 2.21 µg/day | Daily Release Rate ([1]; day 13): 1.15 µg/day | Daily Release Rate ([1]; day 22): 1.29 µg/day | Daily Release Rate ([1]; day 26): 1.30 µg/day | Daily Release Rate ([1]; day 35): 1.16 µg/day | Daily Release Rate ([1]; day 43): 1.15 µg/day | Daily Release Rate ([1]; day 54): 1.35 µg/day | Daily Release Rate ([1]; day 63): 1.16 µg/day | Daily Release Rate ([1]; day 70): 1.20 µg/day | Daily Release Rate ([1]; day 83): 0.900 µg/day | Daily Release Rate ([1]; day 90): 0.882 µg/day | Daily Release Rate ([1]; day 97): 0.387 µg/day | Daily Release Rate ([1]; day 105): 0.891 µg/day | Daily Release Rate ([1]; day 111): 0.798 µg/day | Daily Release Rate ([1]; day 162): 0.557 µg/day | loading ([2]; 3 mm device section post loaded from 25 mg/mL Travoprost in ethanol): approximately 13 mcg | release at 38 days ([2]; post-loaded uncoated 3 mm section): 99% | release profile ([2]; post-loaded uncoated 3 mm section, over 38 days): curvilinear/asymptotic profile | chemical stability (hydrolysis products) [3]: excellent stability | Average n Values, Korsmeyer-Peppas Analysis ([4]; Drug Loading 2.5%): 0.543± | Average n Values, Korsmeyer-Peppas Analysis ([4]; Drug Loading 5%): 0.507± | Average n Values, Korsmeyer-Peppas Analysis ([4]; Drug Loading 10%): 0.453± | Average n Values, Korsmeyer-Peppas Analysis, Mean ([4]; Mean over drug loadings): 0.50 ± 0.09 | Average Linear Regression r^2 Value, Higuchi Equation Analysis ([5]; Drug Loading 2.5%): 0.976 | Average Linear Regression r^2 Value, Higuchi Equation Analysis ([5]; Drug Loading 5%): 0.972 | Average Linear Regression r^2 Value, Higuchi Equation Analysis ([5]; Drug Loading 10%): 0.941 | average slope of cumulative drug released squared versus time in hours (Q^2/T) ([6]; Loading (A %) 1.0): 0.071 ± 0.001 | average slope of cumulative drug released squared versus time in hours (Q^2/T) ([6]; Loading (A %) 2.5): 0.388 ± 0.046 | average slope of cumulative drug released squared versus time in hours (Q^2/T) ([6]; Loading (A %) 5.0): 1.097 ± 0.218 | average slope of cumulative drug released squared versus time in hours (Q^2/T) ([6]; Loading (A %) 10): 15.821 ± 4.141 | relationship of Q^2/T to 2A in modified Higuchi plot ([6]; Table 10, FIG. 12 and FIG. 13): curvilinear relationship
Structure (SMILES): CC(C)OC(=O)CCC/C=C\C[C@@H]1[C@@H](/C=C/[C@@H](O)COc2cccc(C(F)(F)F)c2)[C@H](O)C[C@@H]1O [Travoprost]
